As a reminder, the Cmax is the highest concentration seen after dosing. One may read the bioavailability as the share of a dose that reaches the circulation, judged against a reference dose that is usually intravenous.

Data set [1] deals with NCI-H1975. Nature of the data set: Antitumor activity against human NCI-H1975 cells harboring EGFR T790M/L858R mutant xenografted in nude mouse assessed as tumor growth inhibition at 15 mg/kg, po administered once daily for 7 days relative to control. It counts as functional. The conditions noted are these: Mus musculus, NCI-H1975, po, 168 h, time 7 day, read-out: TGI. For orientation: A xenograft is tissue or cells of one species grown in another, often human tumour cells in immunodeficient mice.

Data set [2] can be described thus: Cmax in Sprague-Dawley rat at 2 mg/kg, iv administered as single dose. It counts as ADME, organism-based. Further details: route intravenous, dose 2 mg/kg. The settings on record: in vivo.
In data set [3] the test system is NCI-H1975. Nature of the data set: Induction of apoptosis in human NCI-H1975 cells harboring EGFR T790M/L858R mutant assessed as viable cells at 1 nM measured after 48 hrs by Annexin-V-FITC/propidium iodide staining based flow cytometry (reference value: 98.63%). It counts as functional. The conditions noted are these: read-out: Activity.
Data set [4] has as its system NCI-H1975. Nature of the data set: Induction of apoptosis in human NCI-H1975 cells harboring EGFR T790M/L858R mutant assessed as early apoptotic cells at 1 nM measured after 72 hrs by Annexin-V-FITC/propidium iodide staining based flow cytometry (reference value: 0.72%). It counts as functional. For orientation: A flow cytometer gives signals particle by particle.
Data set [5] in a line: Oral bioavailability in Sprague-Dawley rat at 10 mg/kg administered as single dose. It counts as ADME, organism-based. The settings on record: in vivo.

As to `C=CC(=O)Nc1cc(Nc2nccc(-c3cn(C4CC4)c4ccccc34)n2)c(OC)cc1[S+]([O-])CCN(C)C` (stereo not given), the inhibition in vivo at 15 mg/kg in the data set with NCI-H1975 [1] was 93.3%. In addition, the concentration in data set [2] peaked (Cmax) at 503 ng/mL. Further, in the data set on NCI-H1975 [3], the viability at 0.001 µM amounted to 82%. Also, the Activity with NCI-H1975 [4] turned out to be 17.25%. This compound also had a bioavailability in data set [5] of 40.4%.

For the origin of these results see ChEMBL document CHEMBL4706659, “Design, synthesis and biological evaluation of novel 2,4-diaryl pyrimidine derivatives as selective EGFR inhibitors” (Eur J Med Chem, 2021).
